According to US20140357706A1, “Stearate Compounds” (THE UAB RESEARCH FOUNDATION, priority 2011, published 2014):

Tests used:
[1] = test system: human ovarian granulosa cells; settings: 50 μM for 3 days; cited from earlier work
Rho = Rho activation assay in Hs578T cells; format: cell-based, human; settings: all time points, especially 16 and 24 h post-EGF stimulation; vs controls
Experimental: The concentration of stearate used to treat the Hs578T cells was 50 μM. When EGF was used, the concentration was 1 nM EGF. Before the treatment with stearate or EGF, cells were first starved for 24-48 hours. Stearate was loaded onto fatty acid-free bovine serum albumin (BSA) according to the method reported by Spector et al. (13); briefly, stearate (0.5 g) was dissolved in chloroform (100 ml) and mixed well with 10 g diatomaceous earth in a 1 liter flask. The mixture was stirred and dried under nitrogen until powder. BSA is a physiological carrier of fatty acids and was used to avoid the introduction of organic solvents to solutions coming into contact with cells. Fatty acid-free BSA (1 g) was dissolved in 100 ml with Dulbecco's modified Eagle's medium without phenol red and mixed with 3 g of the stearate/diatomaceous earth mixture with stirring for 45 min. The stearate/BSA solution was filtered through a 0.45 μm filter, and adjusted to pH 7.4. The concentration of stearate in the solution was detected with the NEFA C Kit from Wako Chemicals GmbH (Neuss, Germany). […]
Ras and Rho activation assay kits were purchased from Millipore (Billerica, Mass.). […] The beads were washed three times with lysis buffer B. Bound Ras-GTP and Rho-GTP proteins were detected by immunoblot using Ras and Rho antibodies.

[2] = test system: differentiated 3T3L1 adipocytes; assay: Necrosis and apoptosis of differentiated 3T3L1 adipocytes (trypan blue, LDH, flow cytometry); format: cell-based, mouse; settings: 50 μM
Experimental: 3T3L1 mouse fibroblast cells (ATCC, CL-173™) were maintained according to the manufacture's protocol, in Dulbecco's modified eagle's medium (DMEM) containing 10% Fetal Bovine Serum and antibiotics (M1 medium). Adipocyte differentiation was performed according to standard procedures (42). Briefly, the 3T3L1 fibroblasts were seeded at 30% confluence and allowed to grow to near 100% confluence. On the day after reaching maximum confluence, conversion was induced by replacing the M1 medium with M1 medium containing insulin (5 μg/ml), dexamethasone (0.25 μM), and 3-isobutyl-1-methyl-xanthine (0.5 mM). After 2 days, the cells were changed to M1 medium with insulin (5 μg/ml) for an additional 2 days. Thereafter, the cells were maintained in M1 medium without additives for 2 days.
50 μM of stearate, oleate or linoleate was used to treat 3T3L1 cells as this concentration is centered within the normal range for non-esterified stearate in the plasma of humans. Stearate, oleate, or linoleate was loaded onto fatty acid free BSA according to the method reported by Spector and Hoak (Spector and Hoak, 1969). Briefly, stearate (0.5 g) was dissolved in chloroform (100 mL) and mixed well with 10 g diatomaceous earth in a 1 liter flask. The mixture was stirred and dried under nitrogen until powder. Fatty acid free BSA (1 g) was dissolved in 100 mL with DMEM without phenol red and mixed with 3 g of the stearate/diatomaceous earth mixture and stirred for 30 minutes. The stearate/BSA solution was filtered through a 0.45 μm filter, and adjusted to pH 7.4. The concentration of stearate in the solution was detected by use of a NEFA C kit. Oleic and linoleate were loaded in the same way. […] Before the treatment with fatty acid, 3T3L1 preadipocytes were grown to 100%, and were starved in 2% FBS medium for 24 hours.
After treatment, 3T3L1 cells were harvested, washed with cold PBS, and then resuspended in 100 μl annexin-binding buffer (50 mM HEPES, 700 mM NaCl, 12.5 mM CaCl2, pH 7.4). Cell density was determined, and the cells were diluted to 10^6 cells. Then 5μL of Alex Fluo 488 annexin V and 1 μL propidium iodide (PI) were added. Cells were gently oscillated and incubated for 15 min at room temperature. After adding 400 μL of binding buffer to each tube, cells were kept on ice and analyzed by flow cytometry within 1 hour. Cells that stained positive for Alex Fluo 488 annexin V and negative for PI were considered to be apoptotic. Cells that stained positive for both Alex Fluo 488 annexin V and PI were considered either in the end stage of apoptosis, or necrosis. Cells that stained negative for both Alex Fluo 488 annexin V and PI were considered alive and not undergoing measurable apoptosis. A BD LSR II flow cytometer from Becton Dickinson was used in all flow experiments and the data were analyzed with BD FACSDiva™ software V.6.1.3.
Lactate dehydrogenase (LDH) release was measured using a cytotoxicity detection kit, according to the manufacture's protocol. After 3T3L1 cells were treated, 1 ml of cell culture medium was removed and centrifuged. The supernatant was retained for assaying. For determinations, 100 μl of LDH assay reagent was added to 100 μl of supernatant and incubated for 30 min at room temperature in the dark. Absorbance was measured at 490 nm. Background release from culture medium alone was subtracted before reporting. Maximum release was measured after adding 2% Triton X-100 to untreated cells.
After treatment, 3T3L1 cells were harvested and stained with 0.4% trypan blue solution. Cells in the four corners of the grid were counted under a conventional bright field binocular microscope.

Q: For `CCCCCCCCCCCCCCCCCC(=O)O` [stearate, Stearic acid], which Cell viability [1] is on record?
A: no decrease

Q: What about the Rho-GTP (Rho) of the same molecule?
A: decreased

Q: What about the “Cytotoxicity (lactate dehydrogenase in medium)” value [2] of the same molecule?
A: no significant changes

Q: What about the “Percentage of apoptotic cells (flow cytometry)” value [2] of the same molecule?
A: no significant changes

Q: What about the “Percentage of dead cells (flow cytometry)” value [2] of the same molecule?
A: no significant changes

Q: What about the “Percentage of dead cells (trypan blue)” value [2] of the same molecule?
A: no significant changes
